“Also recorded” adds a separate entry of the source. Ends that are not written are not given here.
Tests used:
peptide-pulsed T2 cells [1] = test: IFN-gamma ELISA assay on CTL clones established by limiting dilution (HLA-A*0201); assay type: cell-based, human; settings: peptide-pulsed target cells
Protocol: The dilutions were made to have 0.3, 1, and 3 CTLs/well in 96 round-bottomed micro titer plate (Nalge Nunc International). CTLs were cultured with 1×10^4 cells/well of 2 kinds of human B-lymphoblastoid cell lines, 30 ng/ml of anti-CD3 antibody, and 125 U/ml of IL-2 in a total of 150 and/well of AIM-VMedium containing 5% AS. 50 mcl/well of IL-2 were added to the medium 10 days later so to reach a final concentration of 125 U/ml IL-2. CTL activity was tested on the 14th day, and CTL clones were expanded using the same method as described above (Uchida N et al., Clin Cancer Res 2004 Dec. 15, 10(24): 8577-86; Suda T et al., Cancer Sci 2006 May, 97(5): 411-9; Watanabe T et al., Cancer Sci 2005 August, 96(8): 498-506).
Specifically, peptide-pulsed A24 or T2 LCL (1×10^4/well) was prepared as stimulator cells. Cultured cells in 48 wells were used as responder cells. IFN-gamma ELISPOT assay and IFN-gamma ELISA assay were performed under manufacture procedure.

peptide-pulsed T2 cells [2] = test: IFN-gamma ELISA assay on CTL lines (HLA-A*0201); assay type: cell-based, human; settings: target cells pulsed with corresponding peptide vs without peptide
[3] = test system: COS7 cells transfected with IQGAP3 and HLA-A*0201; test: Specific CTL activity against target cells exogenously expressing IQGAP3 and HLA-A*0201; assay type: cell-based; settings: for specific CTL activity of CTL clone against controls: COS7 cells expressing either HLA-A*0201 or IQGAP3 alone; for specific CTL activity of CTL clone: COS7 cells transfected with both IQGAP3 and HLA-A*0201
Description: (§1) The cDNA encoding an open reading frame of target genes or HLA-A*0201 was amplified by PCR. The PCR-amplified products were cloned into pCAGGS vector. The plasmids were transfected into COST, which is the target genes and HLA-A*0201-negative cell line, using lipofectamine 2000 (Invitrogen) according to the manufacturer's recommended procedures. After 2 days from transfection, the transfected cells were harvested with versene (Invitrogen) and used as the target cells (5×10^4 cells/well) for CTL activity assay

peptide-pulsed T2 cells [4] = test: IFN-gamma ELISPOT assay on CTLs induced with HLA-A*0201 restricted peptides; assay type: cell-based, human; settings: against peptide-pulsed target cells compared with control without peptide
[5] = test system: peptide-pulsed A24LCL cells; test: IFN-gamma ELISA assay on CTL lines (HLA-A*2402); assay type: cell-based, human; settings: target cells pulsed with corresponding peptide vs without peptide
[6] = test system: COS7 cells transfected with IQGAP3 and HLA-A*2402; test: Specific CTL activity against target cells exogenously expressing IQGAP3 and HLA-A*2402; assay type: cell-based
Description: as §1, with “gene” for “genes”, “HLA-A24” for “HLA-A*0201”, “product was” for “products were”, “COS7,” for “COST,”, “HLA-A24-null” for “HLA-A*0201-negative”, “assay.” for “assay”

[7] = test system: peptide-pulsed A24LCL cells; test: IFN-gamma ELISPOT assay on CTLs induced with HLA-A*2402 restricted peptides; assay type: cell-based, human; settings: against peptide-pulsed target cells compared with control without peptide, listed as IQGAP3-A24-9-779

GLDDVSLPV [SEQ ID NO: 85]
IFN-gamma production of CTL clones (ELISA) (peptide-pulsed T2 cells [1]; listed as IQGAP3-A02-9-553): potent IFN-gamma production
IFN-gamma production of established CTL lines (ELISA) (peptide-pulsed T2 cells [2]): potent IFN-gamma production
specific CTL activity of CTL clone against controls [3]: no significant specific CTL activity
specific CTL activity of CTL clone ([3]; listed as IQGAP3-A02-9-553): potent CTL activity; also recorded: specific CTL activity
IFN-gamma production of peptide-induced CTLs (ELISPOT) (peptide-pulsed T2 cells [4]; listed as IQGAP3-A02-9-553): potent IFN-gamma production ability

GLLVkNRITL (GLLVKNRITL; not fully specified (residue 5); printed as GLLVkNRITL) [SEQ ID NO: 130]
IFN-gamma production of CTL clones (ELISA) (peptide-pulsed T2 cells [1]; listed as IQGAP3-A02-10-903): potent IFN-gamma production
IFN-gamma production of established CTL lines (ELISA) (peptide-pulsed T2 cells [2]): potent IFN-gamma production
IFN-gamma production of peptide-induced CTLs (ELISPOT) (peptide-pulsed T2 cells [4]; listed as IQGAP3-A02-10-903): potent IFN-gamma production ability

GLVDeLAKDI (GLVDELAKDI; not fully specified (residue 5); printed as GLVDeLAKDI) [SEQ ID NO: 145]
IFN-gamma production of CTL clones (ELISA) (peptide-pulsed T2 cells [1]; listed as IQGAP3-A02-10-1461): potent IFN-gamma production
IFN-gamma production of established CTL lines (ELISA) (peptide-pulsed T2 cells [2]): potent IFN-gamma production
IFN-gamma production of peptide-induced CTLs (ELISPOT) (peptide-pulsed T2 cells [4]; listed as IQGAP3-A02-10-1461): potent IFN-gamma production ability

IMDkIGLLV [SEQ ID NO: 150]
IFN-gamma production of established CTL lines (ELISA) (peptide-pulsed T2 cells [2]): potent IFN-gamma production
IFN-gamma production of peptide-induced CTLs (ELISPOT) (peptide-pulsed T2 cells [4]; listed as IQGAP3-A02-10-897): potent IFN-gamma production ability

IYLEWLQYF [SEQ ID NO: 7]
IFN-gamma production of established CTL lines (ELISA) [5]: potent IFN-gamma production
specific CTL activity of CTL line against controls ([6]; COS7 cells expressing either HLA-A*2402 or IQGAP3 alone): no significant specific CTL activity
specific CTL activity of CTL line ([6]; COS7 cells transfected with both IQGAP3 and HLA-A*2402, listed as IQGAP3-A24-9-779): potent CTL activity; also recorded: specific CTL activity
IFN-gamma production of peptide-induced CTLs (ELISPOT) [7]: potent IFN-gamma production ability

KLGHcFAPSV (KLGHCFAPSV; not fully specified (residue 5); printed as KLGHcFAPSV) [SEQ ID NO: 114]
IFN-gamma production of established CTL lines (ELISA) (peptide-pulsed T2 cells [2]): potent IFN-gamma production
IFN-gamma production of peptide-induced CTLs (ELISPOT) (peptide-pulsed T2 cells [4]; listed as IQGAP3-A02-10-70): potent IFN-gamma production ability

LEAYqHLFYL (LEAYQHLFYL; not fully specified (residue 5); printed as LEAYqHLFYL) [SEQ ID NO: 139]
IFN-gamma production of established CTL lines (ELISA) (peptide-pulsed T2 cells [2]): potent IFN-gamma production
IFN-gamma production of peptide-induced CTLs (ELISPOT) (peptide-pulsed T2 cells [4]; listed as IQGAP3-A02-10-953): potent IFN-gamma production ability

LLAKlGHCFA (LLAKLGHCFA; not fully specified (residue 5); printed as LLAKlGHCFA) [SEQ ID NO: 143]
IFN-gamma production of CTL clones (ELISA) (peptide-pulsed T2 cells [1]; listed as IQGAP3-A02-10-67): potent IFN-gamma production
IFN-gamma production of established CTL lines (ELISA) (peptide-pulsed T2 cells [2]): potent IFN-gamma production
IFN-gamma production of peptide-induced CTLs (ELISPOT) (peptide-pulsed T2 cells [4]; listed as IQGAP3-A02-10-67): potent IFN-gamma production ability

LLPAaGLDDV (LLPAAGLDDV; not fully specified (residue 5); printed as LLPAaGLDDV) [SEQ ID NO: 125]
IFN-gamma production of established CTL lines (ELISA) (peptide-pulsed T2 cells [2]): potent IFN-gamma production
IFN-gamma production of peptide-induced CTLs (ELISPOT) (peptide-pulsed T2 cells [4]; listed as IQGAP3-A02-10-548): potent IFN-gamma production ability

LLYYrFLNPA (LLYYRFLNPA; not fully specified (residue 5); printed as LLYYrFLNPA) [SEQ ID NO: 121]
IFN-gamma production of CTL clones (ELISA) (peptide-pulsed T2 cells [1]; listed as IQGAP3-A02-10-1174): potent IFN-gamma production
IFN-gamma production of established CTL lines (ELISA) (peptide-pulsed T2 cells [2]): potent IFN-gamma production
IFN-gamma production of peptide-induced CTLs (ELISPOT) (peptide-pulsed T2 cells [4]; listed as IQGAP3-A02-10-1174): potent IFN-gamma production ability

QLHYqDLLQL (QLHYQDLLQL; not fully specified (residue 5); printed as QLHYqDLLQL) [SEQ ID NO: 140]
IFN-gamma production of established CTL lines (ELISA) (peptide-pulsed T2 cells [2]): potent IFN-gamma production
IFN-gamma production of peptide-induced CTLs (ELISPOT) (peptide-pulsed T2 cells [4]; listed as IQGAP3-A02-10-1590): potent IFN-gamma production ability

SLFLFRLGL [SEQ ID NO: 75]
IFN-gamma production of CTL clones (ELISA) (peptide-pulsed T2 cells [1]; listed as IQGAP3-A02-9-146): potent IFN-gamma production
IFN-gamma production of established CTL lines (ELISA) (peptide-pulsed T2 cells [2]): potent IFN-gamma production
IFN-gamma production of peptide-induced CTLs (ELISPOT) (peptide-pulsed T2 cells [4]; listed as IQGAP3-A02-9-146): potent IFN-gamma production ability

SMYQlELAVL (SMYQLELAVL; not fully specified (residue 5); printed as SMYQlELAVL) [SEQ ID NO: 142]
IFN-gamma production of established CTL lines (ELISA) (peptide-pulsed T2 cells [2]): potent IFN-gamma production
IFN-gamma production of peptide-induced CTLs (ELISPOT) (peptide-pulsed T2 cells [4]; listed as IQGAP3-A02-10-416): potent IFN-gamma production ability

VLNDYLEET [SEQ ID NO: 99]
IFN-gamma production of established CTL lines (ELISA) (peptide-pulsed T2 cells [2]): potent IFN-gamma production
specific CTL activity of CTL clone against controls [3]: no significant specific CTL activity
specific CTL activity of CTL clone ([3]; listed as IQGAP3-A02-9-1234): potent CTL activity; also recorded: specific CTL activity
IFN-gamma production of peptide-induced CTLs (ELISPOT) (peptide-pulsed T2 cells [4]; listed as IQGAP3-A02-9-1234): potent IFN-gamma production ability

YLLQtQPIYL (YLLQTQPIYL; not fully specified (residue 5); printed as YLLQtQPIYL) [SEQ ID NO: 111]
IFN-gamma production of established CTL lines (ELISA) (peptide-pulsed T2 cells [2]): potent IFN-gamma production
IFN-gamma production of peptide-induced CTLs (ELISPOT) (peptide-pulsed T2 cells [4]; listed as IQGAP3-A02-10-961): potent IFN-gamma production ability

— patent US20110200626A1, “IQGAP3 EPITOPE PEPTIDES AND VACCINES CONTAINING THE SAME” (Oncotherapy Science, Inc., priority 2008, published 2011)
